Data as given in PMC8400257, “2-Phenoxy-3-Trichloromethylquinoxalines Are Antiplasmodial Derivatives with Activity against the Apicoplast of Plasmodium falciparum” (Pharmaceuticals, 2021).
“Also recorded” adds a separate entry of the source.

What was measured:
[1] = test system: quiescent ART-resistant F32-ART5 parasites; assay: Quiescent-stage survival assay (QSA); assay type: cell-based, Plasmodium falciparum; conditions: F32-ART5, DHA 700 nM 6 h then DHA + 3i 2.5 or 5 µM 48 h
Method: Chemosensitivity evaluation of ART-resistant parasites at the quiescent stage was performed on the strain F32-ART5 thanks to the quiescent-stage survival assay (QSA). D-sorbitol synchronized ring-stages parasites at 3% parasitemia (2% hematocrit) were first exposed to 700 nM of dihydroartemisinin (DHA) for 6 h to induce quiescence of artemisinin-resistant parasites. Then, quiescent parasites were exposed or not (as control condition) to the drug to be tested for 48 h. After drug exposure, parasite cultures were washed with RPMI-1640 medium and replaced in normal drug-free culture conditions. The time to parasite recrudescence was determined as the time required to reach the 3% initial parasitemia. […] In each experiment, results obtained with the condition “DHA 6 h/DHA 48 h” were compared to those obtained with the condition “DHA 6 h/(DHA + drug to be tested) 48 h” in order to determine the delay in recrudescence time. […]
3. Studying the effect of (3i) on the liver stage development of P. falciparum Cryopreserved primary human hepatocytes were seeded in 96 well plates with a pre-determined seeding dose that gave a single dense layer of attached hepatocytes. […]
The culture medium with or without drugs was refreshed every 48 hours and two independent plates were studied. […] Plates were subjected to quantification using an automated plate scanner. […]

[2] = test system: P. falciparum apicoplast; assay: Immunofluorescence assay of apicoplast biogenesis on treated blood-stage parasites; assay type: cell-based, Plasmodium falciparum; conditions: 48 h, 0.2 µM
Method: To determine the impact of (3i) on apicoplast biogenesis, parasites were treated for 48 h with 0.2 µM of (3i) or 0.2 µM of (2i) (a control of (3i) for which the active CCl3 was replaced by a methyl CH3 group) and compared to untreated parasites by immunofluorescence assay. […] In order to determine if the apicoplast is the main target of (3i), we performed a growth assay over three life cycles to assess a potential delayed death effect, one of the major signature for compounds affecting apicoplast. […] The second interpretation could be that, unlike chloramphenicol or doxycycline, which cause a delayed death phenotype on Plasmodium, (3i) could act like fosmidomycin or actinonin and cause a rapid death phenotype.
Plasmodium falciparum blood stage parasites were maintained at 2% hematocrit in 1640 RPMI-HEPES, supplemented with 5% AlbuMAX II (GIBCO) and 0.25% gentamycin. Parasites were grown sealed Perspex chambers gassed with beta mix gas (1% O2, 5% CO2 and 94% N2) at 37 °C and maintained on 48-h cycles. Cultures were tightly synchronized at ring stage using sorbitol treatment (5% v/v) as previously described.
Prior to the treatment, parasites were synchronized using 5% sorbitol. After 48 h treatment ([…] or DMSO) parasites were fixed using 4% paraformaldehyde (PFA) and 0.0075% glutaraldehyde for 30 min at room temperature. […]

[3] = test system: primary human hepatocytes; assay: Hepatotoxicity by count of DAPI-stained hepatocyte nuclei; assay type: cell-based; conditions: dose range up to 30 µM
Method: Finally, we studied the hepatotoxicity of (3i). This was carried out by quantification of DAPI-stained hepatocyte nuclei in culture wells. Generally, if a drug is hepatotoxic, it causes death and detachment of hepatocytes leading to less hepatocyte nuclei counts.
Upon immunostaining of parasites, the study plates were scanned using a CellInsight high-content screening platform equipped with the Studio HCS software (Thermo Fisher Scientific, Waltham, MA, USA). The details of analysis is provided elsewhere. The number of host hepatocyte nuclei per well was counted by the system as a measure of toxicity of 3i towards the liver cells.

**Q.** For `O=[N+]([O-])c1ccc(Oc2nc3ccccc3nc2C(Cl)(Cl)Cl)cc1` [3i, 2-(4-Nitrophenoxy)-3-trichloromethylquinoxaline], which “Activity on quiescent ART-resistant parasites (delay in recrudescence time, QSA)” value [1] is on record?
**A.** did not present any activity

**Q.** What about the “Effect on apicoplast biogenesis (immunofluorescence)” value [2] of the same molecule?
**A.** effect on the apicoplast biogenesis; also recorded: doted single non-elongated apicoplast at the mid-trophozoite life stage

**Q.** And the “Cytotoxicity on human hepatocytes (hepatocyte nuclei counts)” value [3]?
**A.** no cytotoxicity on human hepatocytes; also recorded: no cytotoxicity was observed
